Experiment [1] has as its target T1, first (BD1: amino acids K57-E168) bromodomain of BRD4 (Homo sapiens, UniProt O60885).
T1 construct: His-tagged first (BD1: amino acids K57-E168)
Put plainly: TR-FRET bromodomain binding assay, BRD4 BD1. As to conditions: TR-FRET assay protocol (A-G, compound concentration range); Ki calculated from IC50, probe Kd and probe concentration; read-out: TR-FRET Binding Ki: BRD4 (BDI_K57-E168). The essentials: (§1)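 His-tagged BRD4 bromodomain competed against an Alexa647-labeled BET-inhibitor probe by TR-FRET in 20 mM sodium phosphate pH 6.0, 50 mM NaCl, 1 mM EDTA, 0.01% Triton X-100, 1 mM DTT.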

Experiment [2] deals with T2, second (BD2: amino acids E352-E168) bromodomain of BRD4 (Homo sapiens, UniProt O60885).
T2 construct: protocol
Put plainly: TR-FRET bromodomain binding assay, BRD4 BD2. As to conditions: TR-FRET assay protocol (A-G, compound concentration range); Ki calculated from IC50, probe Kd and probe concentration; read-out: TR-FRET Binding Ki: BRD4 (BDII_E352-M457). The procedure, abridged:
as §1

Ki data for 25 compounds are collected here from patent US9561231B2 (AbbVie Inc., priority 2012, dated 2017).

A word on the Ki: it is the dissociation constant of the complex between target and ligand, obtained from inhibition or displacement. Take `Cn1nc(-c2ccccc2Oc2ccccc2)c(-c2ccc(N3CCOCC3)nc2)cc1=O` [Example 179, 2-methyl-5-[6-(morpholin-4-yl)pyridin-3-yl]-6-(2-phenoxyphenyl)pyridazin-3(2H)-one]: the values for the Ki in experiment [1] and in experiment [2] were 0.923 µM and 0.488 µM, respectively.
Taken in the same sequence, the figures for `CCN(CC)C(=O)c1cc(-c2cc(=O)n(C)nc2-c2ccccc2Oc2ccccc2)ccc1F` [Example 181, N,N-diethyl-2-fluoro-5-[1-methyl-6-oxo-3-(2-phenoxyphenyl)-1,6-dihydropyridazin-4-yl]benzamide] were 3.95 µM and 6.16 µM.
Taken in the same sequence, the figures for `Cn1nc(-c2ccccc2Oc2ccccc2)c(-c2ccc(C(=O)NCc3ccccc3)cc2)cc1=O` [Example 182, N-benzyl-4-[1-methyl-6-oxo-3-(2-phenoxyphenyl)-1,6-dihydropyridazin-4-yl]benzamide] were 0.531 µM and 0.174 µM.
Consider `Cn1nc(-c2ccccc2Oc2ccccc2)c(-c2ccc(C(=O)N3CCCC3)cc2)cc1=O` [Example 183, 2-methyl-6-(2-phenoxyphenyl)-5-[4-(pyrrolidin-1-ylcarbonyl)phenyl]pyridazin-3(2H)-one], for which the Ki in experiment [1] was 0.256 µM; in experiment [2] it was 0.166 µM.
On to `Cn1nc(-c2ccccc2Oc2ccccc2)c(-c2ccc(N3CCCCC3)nc2)cc1=O` [Example 184, 2-methyl-6-(2-phenoxyphenyl)-5-[6-(piperidin-1-yl)pyridin-3-yl]pyridazin-3(2H)-one], for which the Ki was 2.14 µM in experiment [1] and 1.96 µM in experiment [2].
Taken in the same sequence, the figures for `Cn1nc(-c2ccccc2Oc2ccccc2)c(-c2ccc(C(=O)NC3CCCCC3)cc2)cc1=O` [Example 185, N-cyclohexyl-4-[1-methyl-6-oxo-3-(2-phenoxyphenyl)-1,6-dihydropyridazin-4-yl]benzamide] were 0.832 µM and 0.324 µM.
Turning to `CN(C)CCNC(=O)c1cccc(-c2cc(=O)n(C)nc2-c2ccccc2Oc2ccccc2)c1` [Example 186, N-[2-(dimethylamino)ethyl]-3-[1-methyl-6-oxo-3-(2-phenoxyphenyl)-1,6-dihydropyridazin-4-yl]benzamide], the Ki in experiment [1] is 1.32 µM; in experiment [2], 0.854 µM.
In the case of `Cn1nc(-c2ccccc2Oc2ccccc2)c(-c2ccc(CNc3ccccc3)cc2)cc1=O` [Example 187, 2-methyl-6-(2-phenoxyphenyl)-5-{4-[(phenylamino)methyl]phenyl}pyridazin-3(2H)-one], the Ki in experiment [1] is 4.95 µM; in experiment [2], 2.25 µM.
Taken in the same sequence, the figures for `CN1CCN(c2ncc(-c3cc(=O)n(C)nc3-c3ccccc3Oc3ccccc3)cn2)CC1` [Example 188, 2-methyl-5-[2-(4-methylpiperazin-1-yl)pyrimidin-5-yl]-6-(2-phenoxyphenyl)pyridazin-3(2H)-one] were 0.67 µM and 1.13 µM.
Regarding `COC(=O)Cc1ccc(-c2cc(=O)n(C)nc2-c2ccccc2Oc2ccccc2)cc1` [Example 189, methyl{4-[1-methyl-6-oxo-3-(2-phenoxyphenyl)-1,6-dihydropyridazin-4-yl]phenyl}acetate], the Ki is 3.14 µM in experiment [1] and 1.48 µM in experiment [2].
As to `CCOc1cncc(-c2cc(=O)n(C)nc2-c2ccccc2Oc2ccccc2)c1` [Example 190, 5-(5-ethoxypyridin-3-yl)-2-methyl-6-(2-phenoxyphenyl)pyridazin-3(2H)-one], the Ki is 6.56 µM in experiment [1] and 2.42 µM in experiment [2].
`CN(C)c1ncc(-c2cc(=O)n(C)nc2-c2ccccc2Oc2ccccc2)cn1` [Example 192, 5-[2-(dimethylamino)pyrimidin-5-yl]-2-methyl-6-(2-phenoxyphenyl)pyridazin-3(2H)-one]: the Ki in experiment [1] was 1.04 µM; in experiment [2] it was 0.395 µM.
For the compound `Cn1nc(-c2ccccc2Oc2ccccc2)c(-c2cccnc2)cc1=O` [Example 195, 2-methyl-6-(2-phenoxyphenyl)-5-(pyridin-3-yl)pyridazin-3(2H)-one], the Ki in experiment [1] is 0.664 µM; in experiment [2] it was 0.317 µM.
For `Cc1ccc(-c2cc(=O)n(C)nc2-c2ccccc2Oc2ccccc2)cn1` [Example 196, 2-methyl-5-(6-methylpyridin-3-yl)-6-(2-phenoxyphenyl)pyridazin-3(2H)-one], the Ki in experiment [1] is 1.08 µM; in experiment [2] it was 0.67 µM.
Regarding `COc1cccc(-c2cc(=O)n(C)nc2-c2ccccc2Oc2ccccc2)c1` [Example 197, 5-(3-methoxyphenyl)-2-methyl-6-(2-phenoxyphenyl)pyridazin-3(2H)-one], the Ki in experiment [1] is 1.06 µM; in experiment [2], 0.725 µM.
Taken in the same sequence, the figures for `COc1cc(-c2cc(=O)n(C)nc2-c2ccccc2Oc2ccccc2)ccc1F` [Example 199, 5-(4-fluoro-3-methoxyphenyl)-2-methyl-6-(2-phenoxyphenyl)pyridazin-3(2H)-one] were > 13 µM and 5.66 µM.
For `Cn1nc(-c2ccccc2Oc2ccccc2)c(-c2ccnc(N)c2)cc1=O` [Example 200, 5-(2-aminopyridin-4-yl)-2-methyl-6-(2-phenoxyphenyl)pyridazin-3(2H)-one], the inhibition constant Ki is 0.344 µM in experiment [1] and 0.971 µM in experiment [2].
For `CC(=O)c1cccc(-c2cc(=O)n(C)nc2-c2ccccc2Oc2ccccc2)c1` [Example 201, 5-(3-acetylphenyl)-2-methyl-6-(2-phenoxyphenyl)pyridazin-3(2H)-one], the Ki in experiment [1] is 2.41 µM; in experiment [2] it was 1.71 µM.
In the case of `CCNC(=O)c1ccc(-c2cc(=O)n(C)nc2-c2ccccc2Oc2ccccc2)cc1` [Example 202, N-ethyl-4-[1-methyl-6-oxo-3-(2-phenoxyphenyl)-1,6-dihydropyridazin-4-yl]-benzamide], the values for the Ki in experiment [1] and in experiment [2] were 0.227 µM and 0.251 µM, respectively.
Consider `COc1ccc(-c2cc(=O)n(C)nc2-c2ccccc2Oc2ccccc2)cc1F` [Example 203, 5-(3-fluoro-4-methoxyphenyl)-2-methyl-6-(2-phenoxyphenyl)pyridazin-3(2H)-one], for which the Ki was 3.51 µM in experiment [1] and 1.52 µM in experiment [2].
Regarding `Cc1c(-c2cc(=O)n(C)nc2-c2ccccc2Oc2ccccc2)cnn1C` [Example 204, 5-(1,5-dimethyl-1H-pyrazol-4-yl)-2-methyl-6-(2-phenoxyphenyl)pyridazin-3(2H)-one], the Ki in experiment [1] is 1.02 µM; in experiment [2], 1.96 µM.
In the case of `Cc1cc(-c2cc(=O)n(C)nc2-c2ccccc2Oc2ccccc2)ccn1` [Example 205, 2-methyl-5-(2-methylpyridin-4-yl)-6-(2-phenoxyphenyl)pyridazin-3(2H)-one], the results for the Ki in experiment [1] and in experiment [2] were 2.83 µM and 2.97 µM, respectively.
Taken in the same sequence, the figures for `CC(C)Cn1cc(-c2cc(=O)n(C)nc2-c2ccccc2Oc2ccccc2)cn1` [Example 206, 2-methyl-5-[1-(2-methylpropyl)-1H-pyrazol-4-yl]-6-(2-phenoxyphenyl)pyridazin-3(2H)-one] were 0.412 µM and 0.672 µM.
Turning to `Cc1ccncc1-c1cc(=O)n(C)nc1-c1ccccc1Oc1ccccc1` [Example 207, 2-methyl-5-(4-methylpyridin-3-yl)-6-(2-phenoxyphenyl)pyridazin-3(2H)-one], the values for the Ki in experiment [1] and in experiment [2] were 7.02 µM and 11.8 µM, respectively.
On to `Cn1nc(-c2ccccc2Oc2ccccc2)c(-c2ccc3c(ccn3C)c2)cc1=O` [Example 208, 2-methyl-5-(1-methyl-1H-indol-5-yl)-6-(2-phenoxyphenyl)pyridazin-3(2H)-one], for which the Ki is 0.901 µM in experiment [1] and 1.51 µM in experiment [2].
